From article PMC7168710, “Antibacterial Activity of Rationally Designed Antimicrobial Peptides” (International Journal of Microbiology, 2020)
In brackets after ≈: the same amount, converted by molar mass.

Tests used:
[1] = tested on: methicillin-resistant S. aureus (ATCC 33591); assay: Microtiter broth dilution MIC, MRSA; type: cell-based, Staphylococcus aureus; details: for MIC, MRSA: microtiter broth dilution (CLSI), TSB, 0.5 McFarland, 24 h 37°C, INT 3 h, absorbance 620 nm, MIC = about 90% killing of inoculum, triplicate, repeated three times; for Sensitivity of MRSA (ATCC 33591) to the peptide: microtiter screening, up to 500 μg/ml
Experimental: (§1) The antibacterial activity of the putative antimicrobial peptides was carried out on Staphylococcus aureus spp., a Gram-positive bacterium obtained from the American Type Culture Collection (ATCC), with the S. aureus spp. comprising of the methicillin-sensitive S. aureus (ATCC 25923) and the methicillin-resistant S. aureus (ATCC 33591) strains. The other bacterial strains tested were K. pneumoniae (ATCC 700603) and P. aeruginosa (ATCC 22108) which are Gram-negative bacteria.
(§2) A stock solution of AMPs was prepared by dissolving an amount of AMPs in sterile distilled water (dH2O), and the various AMP working concentrations used in the microtiter broth dilution assay were prepared in two-fold serial dilutions starting at a concentration of 500 μg/ml to 1.5625 μg/ml. Ampicillin was utilized as the positive control in this assay and a working stock solution of 100 μg/ml was prepared in distilled water.
(§3) The microtiter broth dilution method was employed to measure the antibacterial activity of the AMP's. The assay was performed according to the standards and guidelines as stipulated in the Clinical and Laboratory Standards Institute (CLSI). In brief, the test microorganisms (MRSA (ATCC 33591), MSSA (ATCC 25923), K. pneumoniae (ATCC 700603), and P. aeruginosa (ATCC 22108)) were grown to the midlogarithmic phase in Tryptic Soy Broth (TSB) on a shaker set at 37°C and shaking at 150 rpm. The turbidity was adjusted to a 0.5 McFarland standard with a final volume of 10 ml. From the stock of prepared AMP solutions, various working peptide concentrations (500 μg/ml to 1.5625 μg/ml) were prepared, and a mixture of the bacteria with the peptides was incubated in a 96 well flat bottom plate for 24 h at 37°C. Following 24 h incubation, 40 μl of 2-(4-iodophenyl)-3-(4-nitrophenyl)-5-phenyl-2H-tetrazolium (INT) was added to each well and incubated again for 3 h. Absorbance readings were taken at 620 nm on a microtiter plate reader (Omega®POLARstar BMG Labtech, USA).
(§4) All the antibacterial assays of the AMPs were prepared in triplicate, and the experiments were repeated three times to ensure the reproducibility of the testing. Absorbance results were exported into an Excel file, where they were transformed into a percentage, in a Normalizing process. The MIC of each peptide was defined as the concentration resulting in about 90% killing of the initial inoculums.

[2] = tested on: methicillin-sensitive S. aureus (ATCC 25923); assay: Microtiter broth dilution MIC, MSSA; type: cell-based, Staphylococcus aureus; details: for MIC, MSSA: microtiter broth dilution (CLSI), TSB, 0.5 McFarland, 24 h 37°C, INT 3 h, absorbance 620 nm, MIC = about 90% killing of inoculum, triplicate, repeated three times; for Sensitivity of MSSA (ATCC 25923) to the peptide: microtiter screening, up to 500 μg/ml
Experimental: as §1, §2, §3, §4

[3] = tested on: K. pneumoniae (ATCC 700603); assay: Microtiter broth dilution MIC, K. pneumoniae; type: cell-based, Klebsiella pneumoniae; details: for MIC, K. pneumoniae: microtiter broth dilution (CLSI), TSB, 0.5 McFarland, 24 h 37°C, INT 3 h, absorbance 620 nm, MIC = about 90% killing of inoculum, triplicate, repeated three times
Experimental: as §1, §2, §3, §4

[4] = tested on: P. aeruginosa (ATCC 22108); assay: Microtiter broth dilution MIC, P. aeruginosa; type: cell-based, Pseudomonas aeruginosa; details: for MIC, P. aeruginosa: microtiter broth dilution (CLSI), TSB, 0.5 McFarland, 24 h 37°C, INT 3 h, absorbance 620 nm, MIC = about 90% killing of inoculum, triplicate, repeated three times
Experimental: as §1, §2, §3, §4

[5] = tested on: P. aeruginosa (ATCC 22108); assay: Growth inhibitory assay (time curve, OD620), P. aeruginosa; type: cell-based, Pseudomonas aeruginosa; details: for Growth inhibition of P. aeruginosa over time: OD620 measured 3 to 8 h after treatment, 96-well plates, different peptide concentrations (25 μg/ml and lower)
Experimental: (§5) The growth curves for K. pneumoniae (ATCC 700603) and P. aeruginosa (ATCC 22108) treated with Molecule 3 and Molecule 7 over time were determined based on measurements taken at 620 nm at each collection time. Different concentrations of the peptide were added to the tested strains (K. pneumonia and P. aeruginosa), which were cultured in 96 well plates using the same method as used for the determination of the antimicrobial activity of the AMPs and the MIC.
(§6) In addition to the determined MICs, we investigated the rate at which the peptides influence the bacterial growth over time (Figures 1 and 2). The OD620 was measured from 3 to 8 h after treatment with a microplate reader, with Ampicillin as a positive control.

[6] = tested on: K. pneumoniae (ATCC 700603); assay: Growth inhibitory assay (time curve, OD620), K. pneumoniae; type: cell-based, Klebsiella pneumoniae; details: for Growth inhibition of K. pneumoniae over time: OD620 measured 3 to 8 h after treatment, 96-well plates, different peptide concentrations (25 μg/ml and lower)
Experimental: as §5, §6

HepG2 cell line = assay: MTT cytotoxicity assay, HepG2; type: cell-based, human; details: 48 h treatment; for cell lines inhibition, HepG2: 25 μg/ml peptide; for Cell viability, HepG2: 100 μg/ml peptide, one value given for both peptides, repeated three times
Experimental: (§7) The cytotoxicity activity of the AMPs was measured by using the 3-(4,5-dimethylthiazol-2-yl)-2,5- diphenyltetrazolium bromide (MTT) assay as described by Freimoser. In brief, after the trypsinisation of HEK293T and HepG2 cells, 1 × 10^4 cells/well were seeded in a 96-well sterile plate and grown to confluence in Dulbecco's modified Eagle's medium containing 10% fetal calf serum. Molecule 3 and Molecule 7 were each added to the wells at different concentrations (10 μg/ml, 25 μg/ml, 50 μg/ml, and 100 μg/ml). Cells treated with 6% DMSO served as positive control. After 48 h after treatment with the peptides, 20 μl of MTT solution was added to each well, and the plates were incubated in a humidified incubator for 3 h in 5% CO2 at 37°C. After incubation, the media was removed and dimethyl sulfoxide (DMSO) (100 μl per well) was added into each well and the plate was again incubated in a shaker at 37°C, 5% CO2 incubator for 10 min. The plates were gently swirled for 10 min at room temperature to dissolve the precipitate. The absorbance was determined using a multiplate reader (Omega®POLARstar BMG Labtech, USA) at a wavelength of 570 nm, 600 nm, and 630 nm.
(§8) The assay was repeated three times to confirm the reproducibility of the experiment. The final absorbance of the treated cells was obtained by subtracting the background absorbance of the multi-well plate at 630 nm and from the 570 nm measurements. The percentage cell viability was calculated using the following formulae:(1) Cell viability %=OD570−OD630Treated sample/OD570−OD630Untreated control×100.
(§9) Absorbance results were exported into an Excel file, where they were transformed into a percentage, in a process called normalizing.

HEK293T cell line = assay: MTT cytotoxicity assay, HEK293T; type: cell-based, human; details: 48 h treatment; for cell lines inhibition, HEK293T: 25 μg/ml peptide; for Cell viability, HEK 293T: 100 μg/ml peptide, one value given for both peptides, repeated three times
Experimental: as §7, §8, §9

[7] = 100 μg/ml, OD620 time curve 3 to 8 h

Row | Compound | MIC ([1]; Staphylococcus aureus, read-out: MIC, MRSA) | MIC ([2]; Staphylococcus aureus, read-out: MIC, MSSA) | MIC ([3]; Klebsiella pneumoniae, ATCC700603, read-out: MIC, K. pneumoniae) | MIC ([4]; Pseudomonas aeruginosa, ATCC22108, read-out: MIC, P. aeruginosa) | Growth inhibition of P. aeruginosa, positive control [5, 7] | Growth inhibition of K. pneumoniae, positive control [6, 7] | MIC, MRSA [1] | Sensitivity of MRSA (ATCC 33591) to the peptide [1] | MIC, MSSA [2] | Sensitivity of MSSA (ATCC 25923) to the peptide [2] | MIC, K. pneumoniae [3] | MIC, P. aeruginosa [4] | Growth inhibition of P. aeruginosa over time [5] | Growth inhibition of K. pneumoniae over time [6] | cell lines inhibition, HepG2 (HepG2 cell line) | Cell viability, HepG2 (HepG2 cell line) | cell lines inhibition, HEK293T (HEK293T cell line) | Cell viability, HEK 293T (HEK293T cell line) | Period of growth suppression of K. pneumoniae ([6]; peptide concentration 6.25 μg/ml, OD620 time curve)
1 | CC1(C)S[C@@H]2[C@H](NC(=O)[C@H](N)c3ccccc3)C(=O)N2[C@H]1C(=O)O [Ampicillin, reference compound] | > 100 µg/mL | > 100 µg/mL | > 100 µg/mL | 100 µg/mL (≈ 286 µM) | could inhibit the growth | failed to inhibit the growth |  |  |  |  |  |  |  |  |  |  |  |  | 
2 | RWKIFKKIEKMGRNIRDGIVKAGPAIEVLGSAKAIGK [Molecule 7, putative anti-HIV antimicrobial peptide, chemically synthesized by solid-phase method] |  |  |  |  |  |  | >500 µg/mL | insensitive | >500 µg/mL | insensitive | 12.5 µg/mL | 6.25 µg/mL | could not inhibit P. aeruginosa growth at concentrations lower than the MIC | could not suppress the growth of K. pneumoniae (ATCC 700603) at concentrations lower than the respective MIC values | more than 90% | 79.5% | more than 90% | 59.29% | 
3 | CLRYKKPECQSDWQCPGKKRCCPDTCGIKCLDPVDTPNPTRRKPGKCPVTYGQCLMLNPPNFCEMDGQCKRDLKCCMGM [Molecule 1, putative anti-HIV antimicrobial peptide, chemically synthesized by solid-phase method] |  |  |  |  |  |  | >500 µg/mL |  | >500 µg/mL |  | 500 µg/mL | >500 µg/mL |  |  |  |  |  |  | 
4 | CLKSGAICHPVFCPRRYKQIGTCGLPGTKCCKKP [Molecule 8, putative anti-HIV antimicrobial peptide, chemically synthesized by solid-phase method] |  |  |  |  |  |  | >500 µg/mL |  | >500 µg/mL |  | >500 µg/mL | >500 µg/mL |  |  |  |  |  |  | 
5 | WNPFKELEKAGQRVRDAIISAKPAVDVVGQATAIIK [Molecule 10, putative anti-HIV antimicrobial peptide, chemically synthesized by solid-phase method] |  |  |  |  |  |  | >500 µg/mL |  | >500 µg/mL |  | 500 µg/mL | >500 µg/mL |  |  |  |  |  |  | 
6 | RWKLFKKIEKVGRNVRDGLIKAGPAIAVIGQAKSLGK [Molecule 3, putative anti-HIV antimicrobial peptide, chemically synthesized by solid-phase method] |  |  |  |  |  |  | >500 µg/mL | insensitive | >500 µg/mL | insensitive | 12.5 µg/mL | 6.25 µg/mL | able to inhibit P. aeruginosa at all the concentrations and for the duration of the experiment | able to suppress the growth of K. pneumoniae (ATCC 700603) at concentrations equal to the MIC (12.5 μg/ml) and 2x MIC | more than 90% | 79.5% | more than 90% | 59.29% | 4 h
